This note sets out measurements from paper PMC10253812, “Novel 2-alkythio-4-chloro-N-[imino(heteroaryl)methyl]benzenesulfonamide Derivatives: Synthesis, Molecular Structure, Anticancer Activity and Metabolic Stability” (International Journal of Molecular Sciences, 2023).

Read-outs that look alike come from different tables or passages of the source.

In experiment [1] the test system is HeLa cells. In words: Cell cycle distribution analysis (PI staining, flow cytometry). Conditions: 48 h; for percentage of cells in the sub-G1 phase of the cell cycle: HeLa, 5, 7 and 10 µM. In kind it is cell-based, human. On the procedure: The effects of compounds 11, 12 and 13 on the cell cycle phase distribution of HeLa cells were assessed by flow cytometry. The cells were treated with 5, 7 and 10 µM concentrations of […] and 13 for 48 h and stained with PI.
Cell Cycle Distribution Analysis: The effects of 11, 12 and 13 on the cell cycle distribution in HeLa cells were determined by flow cytometry analysis. The cells were treated with 11, 12 and 13 (5, 7 and 10 µM) for 48 h, after which they were fixed in cold 70% ethanol for 24 h. The fixed cells were treated with 100 µg/mL of RNAse (Invitrogen, Germany) and stained with 10 µg/mL of PI (Invitrogen, Germany) for 30 min at RT. The acquisition was performed on a FACSCalibur cytometer (BD), and the data were analyzed with Flowing software (version 2.5).
Background: A flow cytometer gives signals particle by particle.

Experiment [2] relates to HaCaT (immortalized human keratinocytes). Description: MTT cell viability assay, non-tumor HaCaT. In kind it is cell-based. The conditions noted are these: Homo sapiens, HaCaT, 72 h of incubation, non-tumor cell line. On the procedure: (§1) Compounds 8–24 were evaluated in vitro for their cytotoxic effect against three human cancer cell lines, i.e., HeLa (cervical cancer), HCT-116 (colon cancer) and MCF-7 (breast cancer), and the non-tumor cell line HaCaT using the MTT assay after 72 h of incubation. The results of tests are presented in Table 1 as IC50, indicating the concentration required for 50% inhibition of cell viability. Compounds 8–10 and 14–18 are not presented in the Table 1 because of their low potency (IC50 > 100 µM).
We also performed an assay on the non-tumor cell line HaCaT (immortalized human keratinocytes) to assess if the effect of 11–13 was selective toward HeLa cells or resulted from a more general toxic activity.
(§2) All chemicals, if not stated otherwise, were obtained from Sigma-Aldrich (St. Louis, MO, USA). The MCF-7, HeLa and HaCaT cell lines were purchased from Cell Lines Services (Eppelheim, Germany), and the HCT-116 cell line was purchased from ATCC (ATCC-No: CCL-247). The cells were cultured in Dulbecco’s modified Eagle’s medium (DMEM) supplemented with 10% fetal bovine serum, 2 mM glutamine, 100 units/mL of penicillin and 100 μg/mL of streptomycin. The cultures were maintained in a humidified atmosphere with 5% CO2 at 37 °C, in an incubator (Heraeus, HeraCell).
(§3) Cytotoxicity assay: Cell viability was determined using the MTT (3-(4,5-dimethylthiazol-2-yl)-2,5diphenyltetrazoliumbromide) assay. The cells were seeded in 96-well plates at a density of 5 × 10^3 cells/well and treated for 24, 48 and 72 h with the examined compounds in the concentration range 1–100 μM. Following treatment, MTT (0.5 mg/mL) was added to the medium, and the cells were further incubated for 2 h at 37 °C. the cells were lysed with DMSO, and the absorbance of the formazan solution was measured at 550 nm with a plate reader (Victor, 1420 multilabel counter). The experiment was performed in triplicate. The values are expressed as the mean ± SD of at least three independent experiments.
For orientation: Tetrazolium assays rely on reduction of a dye to a coloured formazan, in cell work by metabolically active cells.

In experiment [3] the test system is HeLa (cervical cancer) cell line. In words: MTT cell viability assay, HeLa. Format: cell-based, human. Conditions: for IC50: Homo sapiens, HeLa. On the procedure: as §1
The cytotoxic activity of 11–13 was determined in a time-dependent manner with the MTT assay (Figure 3).
HeLa cells were treated with 11, 12 and 13 in the concentration range of 0–20 µM. […] After 48 h, the IC50 values for compounds 11, 12 and 13 were 6, 7 and 6 µM, respectively.
as §2, §3

Setting [4] is: MTT assay, 72 h of incubation, read-out: IC50 HeLa.
[5] abbreviates: MTT, 24 h of treatment, 0–20 µM.

For the molecule `Cc1cc(S(=O)(=O)NC(=N)n2ccn(C)c2=S)c(SCc2ccc(Cl)cc2)cc1Cl` [Compound 11, 4-Chloro-N-[imino(3-methyl-2-thioxo-2,3-dihydro-1H-imidazol-1-yl)methyl]-5-methyl-2-(4-chlorobenzylthio)benzenesulfonamide], in experiment [1], the “percentage of cells in the sub-G1 phase of the cell cycle” value (“percentage of cells” for short) was “increase in the percentage of cells in the sub-G1 phase”. Also, the IC50 in experiment [2] amounted to 18 ± 0.5 µM; in experiment [3] (setting [4]), 6 ± 0.1 µM. Besides, in experiment [3] (setting [5]), the “IC50 HeLa after 24 h” value is “not reached”.
Take `Cc1cc(S(=O)(=O)NC(=N)n2ccn(C)c2=S)c(SCc2cccc3ccccc23)cc1Cl` [Compound 13, 4-Chloro-N-[imino(3-methyl-2-thioxo-2,3-dihydro-1H-imidazol-1-yl)methyl]-5-methyl-2-(naphthalen-1-ylmethylthio)benzenesulfonamide]: the “percentage of cells” value in experiment [1] is “increase in the percentage of cells in the sub-G1 phase”. Besides, the IC50 in experiment [2] turned out to be 18 ± 0.5 µM; in experiment [3] (setting [4]), 6 ± 0.1 µM; in experiment [3] (MTT, 24 h of treatment, 0–20 µM, read-out: IC50 HeLa after 24 h), 18 µM.
In the case of `Cc1cc(S(=O)(=O)NC(=N)n2ccn(C)c2=S)c(SCc2cc3c(cc2Cl)OCO3)cc1Cl` [Compound 12], the “percentage of cells” value in experiment [1] is “increase in the percentage of cells in the sub-G1 phase”. In addition, the cell cycle arrest entry in experiment [1] (HeLa, 7 and 10 μM) is reported as “induced G2/M arrest”. The values for the IC50 in experiment [2] and in experiment [3] (setting [4]) were 20 ± 1 µM and 7 ± 0.3 µM, respectively. Besides, the “IC50 HeLa after 24 h” value in experiment [3] (setting [5]) is reported as “not reached”.

A word on the IC50: it is the concentration that gives 50% inhibition.
